US5075327A, “Antipsoriatic agents” (Hoffmann-La Roche Inc., priority 1988, dated 1991)
Where two headings read alike, the source gives them in different places.

Assays:
[1] = system: cholesterol biosynthesis in HepG2 cells; experiment: Inhibition of cholesterol biosynthesis in HepG2 cells (3H2O incorporation into cholesterol); assay type: cell-based; conditions: for IC50: Homo sapiens
Protocol: HepG2 cells are maintained in 175 cm^2 T flasks in Darlington Medium supplemented with 10% fetal bovine serum (FBS). Darlington Medium consists of 3 parts Minimal Essential Medium, 1 part Waymouth's MAB87/3 medium and 3×10^-8 M sodium selenite. This medium is supplemented with 100 U/ml penicillin, 100 ug/ml streptomycin and 2.5 ug/ml Fungizone. In order to establish optimal conditions for the whole cell cholesterol biosynthesis assay, preliminary experiments were performed. 0.25, 0.5, 0.75 or 1×10^6 cells were seeded into 6 well cluster plates in 2 ml of fully supplemented Darlington Medium. The serum supplemented medium was aspirated after 72 hours and replaced with serum free Darlington Medium with antibiotics. After 24, 48 or 72 hours serum free, the cells received either 0.5 or 1 mCi ^3 H2 O/ml medium. This medium was aspirated after 24 hours and the cells were washed twice with phosphate buffered saline. The cells were frozen overnight at -20° C. after which they were harvested from the wells with 1 ml of trypsin-EDTA. Extracted lipids were separated on an HPLC system; cholesterol peaks were collected and counted in a scintillation counter. Results are expressed as the dpm ^3 H2 O incorporated into cholesterol.
In the screening assay the cells received compounds at various concentrations concommitantly with ^3 H2 O. When ethanol was the vehicle, the final ethanol concentration was 0.5%, and control wells with that concentration of ethanol were used in each experiment. Results are expressed as the percent dpm ^3 H2 O incorporated into cholesterol in treated vs control wells. IC50 values are calculated using a linear regression analysis.

[2] = system: cholesterol biosynthesis; conditions: U.S. Pat. No. 4,450,171, col. 1, lines 43-51; cited from earlier work
[3] = system: human keratinocytes; experiment: Inhibition of proliferation of cultured human keratinocytes (cell count by Coulter Counter); assay type: cell-based; conditions: for inhibition at 1 µM / inhibition at 0.1 µM / inhibition at 0.01 µM: Homo sapiens, Keratinocyte; for inhibition at 1 µM: 10^-6 M; for inhibition at 0.1 µM: 10^-7 M; for inhibition at 0.01 µM: 10^-8 M; for Percent Inhibition on Keratinocyte Proliferation: ^ 10^-10 M
Protocol: Human neonatal foreskins were collected by circumcision and placed into tubes containing DMEM media. Upon arrival at the laboratory the foreskins were mechanically trimmed of excess dermis and treated with a solution of trypsin/EDTA (0.05%/0.02%) at 4° C. overnight. The epidermis was stripped from the dermis, agitated in buffered saline to remove basal keratinocytes and the stratum corneum buffer was removed. The separated cells were centrifuged, resuspended in media, counted and the cells were plated onto a plain plastic material layer.
The keratinocytes were plated at a density of approximately about 10^5 cells/cm^2 in 35 cm^2 dishes. The cells were grown in keratinocyte growth media (KGM-modified MCDB 153 containing […] by Clonetics of Boulder, Colo.) according to protocols originally developed by Boyce, S. T. and Ham, R. G., J. of Tissue Culture Meth. 9:83-93 (1985). The cells were grown for 5-10 days and changed every 2-3 days with keratinocyte growth media with 1.5 mM CaCl2 (hereinafter KGM/1.5 mM CaCl2) until cells reached a 75% confluency by visual observation. All the cultures were incubated in a humidified atmosphere of 5% CO2 at 37° C.
To establish keratinocyte cell cultures as antiproliferative assays, cells prepared as described in the foregoing were washed with PBS and removed from the culture surface with a solution of trypsin/EDTA (0.25%/0.03%). The removed cells were then centrifuged resuspended in the KGM/1.5 mM CaCl2 and counted. The cells were then distributed to 6 well plates at 100,000 cells per well as described in the foregoing. […] After 24-48 hours the cells were changed into KGM/1.5 mM CaCl2. Test compounds were added one to two days later and the cultures maintained for seven days. The media was changed every 2-3 days.
Solutions of the test compounds were prepared as follows: 1 milligram quantities were received in amber glass vials, and stored at -20° C. Sufficient 100% ethanol was added directly to vials to obtain a millimolar solution that was subsequently aliquoted into small amber vials, overlayed with argon gas and stored at -20° C. Each stock solution was thawed once, used and discarded. Aliquots from the stock solutions were diluted directly into medium and then serially diluted from micromolar to 10^-12 M concentrations. Dilutions from 10^-8 M to 10^-12 M had ethanol added for a final concentration of 0.1%. Stock solutions were used within one month. Control cultures were treated with 0.1% ethanol.
For each experiment every culture well received the same number of cells from the same culture source. At the termination of the experiment the number of cells per was determined by the following procedure. Wells were washed twice with PBS and then incubated for approximately 10-20 minutes at 37° C. with a trypsin/EDTA solution (0.25%/0.03%). PBS plus 0.1% […] was added and the cells were suspended. An aliquot of the cells was placed into isotonic buffered saline and counted on an electronic particle counter (e.g. Coulter Counter® device by Coulter Electronics of Hialeah, Fla.).
For statistical analysis, the mean was calculated for all wells in each treatment group. Standard error was determined by nonbiased analysis using a value for the number of wells in each group, preferably N=3.
Quantification of proliferation was done by enumerating the number of keratinocyte cells in each well using the Coulter Counter®. Results shown in Table 1 below show the percent reduction or inhibition of keratinocyte cells calculated for each of 4 concentrations of the compounds tested according to the formula: [formula]
Each compound was tested in triplicate. The control (ETOH), as noted above, was 0.1% ethanol.

[4] = system: human keratinocyte cells; experiment: Toxicity to keratinocytes in the proliferation assay; assay type: cell-based; conditions: 10^-6 M; keratinocyte cells in vitro
[5] = 168 h, 7 days, N = 3, read-out: Percent Inhibition on Keratinocyte Proliferation

SMILES: CCC(C)C(=O)OC1CC(C)C=C2C=CC(C)C(CCC3CC(O)CC(=O)O3)C21 (centres unmarked) [mevinolin, reference compound]
- IC50 ([1]; HepG2, Test I): 20 nM
- IC50 ([1]; HepG2, Test II): 640 nM
- activity in inhibiting cholesterol biosynthesis among the natural mevinolin compounds [2]: most active member

SMILES: CC[C@H](C)C(=O)O[C@H]1CCC=C2C=CC[C@H](CC[C@@H]3C[C@@H](O)CC(=O)O3)[C@]21C [Compound A, [4R-(4α,6β),6[1S-[1α,8β(S), 8aα]]]-6-[2-[1,2,6,7,8,8a-hexahydro-8a-methyl-8-(2-methyl-1-oxo-butoxy)-1-naphthalenyl]-ethyl]tetrahydro-4-hydroxy-2H-pyran-2-one]
- inhibition at 1 µM [3, 5]: 17.1%
- inhibition at 0.1 µM [3, 5]: 10%
- inhibition at 0.01 µM [3, 5]: 8.24%
- inhibition at 1 µM ([3]; read-out: inhibition rate of proliferation of keratinocyte cells): ~20%
- Percent Inhibition on Keratinocyte Proliferation ([3]; 7 days, N = 3): 20.98%
- toxicity to the cells [4]: without toxicity to the cells
- cholesterol biosynthesis inhibition as compared to mevinolin ([1]; HepG2 cells, Tests I and II): exhibited cholesterol biosynthesis inhibition
- IC50 ([1]; HepG2, Test I): 47 nM
- IC50 ([1]; HepG2, Test II): 3810 nM

SMILES: CC(=O)O[C@H]1CCCC2=CCC[C@H](CCC=O)[C@]21C [Compound B, [1S-(1α,8β,8aβ)]-8-(2-formylethyl)-8a-methyl-1,2,3,4,6,7,8,8a-octahydro-1-naphthalenol-acetate]
- inhibition at 1 µM [3, 5]: 19.5%
- inhibition at 0.1 µM [3, 5]: 31.4%
- inhibition at 0.01 µM [3, 5]: 22.9%
- Percent Inhibition on Keratinocyte Proliferation ([3]; 7 days, N = 3): 4.52%
- inhibition of cell proliferation relative to compound A ([3]; conclusion in words): slightly greater rate than compound A
